Data taken from ChEMBL document CHEMBL3526033, “Identification of human liver cytochrome P450 enzymes involved in the metabolism of SCH 530348 (Vorapaxar), a potent oral thrombin protease-activated receptor 1 antagonist” (Drug Metab Dispos, 2011).

Legend:
Cytochrome P450 1A2 = target: T1, Cytochrome P450 1A2 (Homo sapiens, UniProt P05177); experiment: Activity of human recombinant CYP1A2 assessed as enzyme-mediated drug metabolism treated with 25 uM vorapaxar after 120 mins by LC-MS/MS analysis in presence of NADPH; type: ADME; settings: 2 h
T1 sequence (P05177 whole entry): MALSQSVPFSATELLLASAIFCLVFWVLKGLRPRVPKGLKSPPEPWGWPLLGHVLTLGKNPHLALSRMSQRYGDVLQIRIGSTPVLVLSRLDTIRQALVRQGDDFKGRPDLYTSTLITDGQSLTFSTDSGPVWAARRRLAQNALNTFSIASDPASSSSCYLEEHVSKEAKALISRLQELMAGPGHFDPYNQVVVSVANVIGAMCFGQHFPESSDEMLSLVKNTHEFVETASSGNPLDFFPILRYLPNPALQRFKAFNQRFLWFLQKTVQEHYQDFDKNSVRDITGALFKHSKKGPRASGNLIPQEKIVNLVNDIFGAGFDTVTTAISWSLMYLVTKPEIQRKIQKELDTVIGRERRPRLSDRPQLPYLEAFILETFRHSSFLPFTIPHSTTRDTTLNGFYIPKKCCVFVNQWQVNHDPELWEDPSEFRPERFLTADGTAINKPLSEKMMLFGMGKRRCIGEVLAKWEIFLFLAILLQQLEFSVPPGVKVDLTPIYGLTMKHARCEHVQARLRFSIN

Cytochrome P450 4F2 = Cytochrome P450 4F2 (Homo sapiens, UniProt P78329); experiment: Activity of human recombinant CYP4F2 assessed as enzyme-mediated drug metabolism treated with 25 uM vorapaxar after 120 mins by LC-MS/MS analysis in presence of NADPH; type: ADME; settings: 2 h
Liver microsome [1] = experiment: Drug metabolism in human liver microsomes assessed as (3R,3aS,4S,4aR,7R,8aR,9aR)-7-amino-4-((E)-2-(5-(3-fluorophenyl)pyridin-2-yl)vinyl)-3-methyldecahydronaphtho[2,3-c]furan-1(3H)-one formation at 10 to 25 uM after 120 mins by LC-MS/MS analysis in presence of ketoconazole; type: ADME; settings: 2 h
Liver microsome [2] = experiment: Drug metabolism in human liver microsomes assessed as (3R,3aS,4S,4aR,7R,8aR,9aR)-7-amino-4-((E)-2-(5-(3-fluorophenyl)pyridin-2-yl)vinyl)-3-methyldecahydronaphtho[2,3-c]furan-1(3H)-one formation at 10 to 25 uM after 120 mins by LC-MS/MS analysis in presence of sulfaphenazole; type: ADME; settings: 2 h
Liver microsome [3] = experiment: Drug metabolism in human liver microsomes assessed as (3R,3aS,4S,4aR,7R,8aR,9aR)-7-amino-4-((E)-2-(5-(3-fluorophenyl)pyridin-2-yl)vinyl)-3-methyldecahydronaphtho[2,3-c]furan-1(3H)-one formation at 10 to 25 uM after 120 mins by LC-MS/MS analysis in presence of CYP2B6-specific inhibitory antibody; type: ADME; settings: 2 h
[4] = Drug metabolism in human liver microsomes assessed as compound remaining at 10 uM after 120 mins by LC-MS/MS analysis in presence of NADPH; type: ADME; settings: read-out: Compound recovery
CYP1A2 = CYP1A2 (Homo sapiens, UniProt P05177); experiment: Activity of human recombinant CYP1A2 assessed as enzyme-mediated drug metabolism at 10 uM after 120 mins by LC-MS/MS analysis in presence of NADPH; type: ADME; settings: read-out: Compound recovery
CYP2B6 = CYP2B6 (Homo sapiens, UniProt P20813); experiment: Activity of human recombinant CYP2B6 assessed as enzyme-mediated drug metabolism at 10 uM after 120 mins by LC-MS/MS analysis in presence of NADPH; type: ADME; settings: read-out: Compound recovery
CYP2C19 = CYP2C19 (Homo sapiens, UniProt P33261); experiment: Activity of human recombinant CYP2C19 assessed as enzyme-mediated drug metabolism at 10 uM after 120 mins by LC-MS/MS analysis in presence of NADPH; type: ADME; settings: read-out: Compound recovery
Cytochrome P450 2A6 = Cytochrome P450 2A6 (Homo sapiens, UniProt P11509); experiment: Activity of human recombinant CYP2A6 assessed as enzyme-mediated 2-hydroxyethyl (1R,3aR,4aR,6R,8aR,9S,9aS)-9-((E)-2-(5-(3-fluorophenyl)pyridin-2-yl)vinyl)-1-methyl-3-oxododecahydronaphtho[2,3-c]furan-6-ylcarbamate formation at 25 uM after 120 mins by LC-MS/MS analysis in presence of NADPH; type: ADME; settings: 2 h
Cytochrome P450 4F3 [5] = target: T2, Cytochrome P450 4F3 (Homo sapiens, UniProt Q08477); experiment: Activity of human recombinant CYP4F3A assessed as enzyme-mediated 2-hydroxyethyl (1R,3aR,4aR,6R,8aR,9S,9aS)-9-((E)-2-(5-(3-fluorophenyl)pyridin-2-yl)vinyl)-1-methyl-3-oxododecahydronaphtho[2,3-c]furan-6-ylcarbamate formation at 25 uM after 120 mins by LC-MS/MS analysis in presence of NADPH; type: ADME; settings: 2 h
T2 sequence (Q08477 whole entry): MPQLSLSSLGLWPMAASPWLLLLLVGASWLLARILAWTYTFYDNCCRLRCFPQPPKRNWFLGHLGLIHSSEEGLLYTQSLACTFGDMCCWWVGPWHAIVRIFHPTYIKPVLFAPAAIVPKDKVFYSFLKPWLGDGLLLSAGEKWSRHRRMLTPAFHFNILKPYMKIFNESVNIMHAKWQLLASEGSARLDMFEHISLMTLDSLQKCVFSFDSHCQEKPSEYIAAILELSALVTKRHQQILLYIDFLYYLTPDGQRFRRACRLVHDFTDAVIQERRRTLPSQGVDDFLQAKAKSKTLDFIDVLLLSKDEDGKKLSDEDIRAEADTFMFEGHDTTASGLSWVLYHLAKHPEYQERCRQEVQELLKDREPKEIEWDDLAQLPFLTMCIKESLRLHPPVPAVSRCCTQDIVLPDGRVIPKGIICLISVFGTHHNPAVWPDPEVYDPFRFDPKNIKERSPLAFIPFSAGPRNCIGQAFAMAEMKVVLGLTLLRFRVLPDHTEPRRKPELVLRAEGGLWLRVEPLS

Cytochrome P450 4F3 [6] = target: T2, Cytochrome P450 4F3; experiment: Activity of human recombinant CYP4F3B assessed as enzyme-mediated 2-hydroxyethyl (1R,3aR,4aR,6R,8aR,9S,9aS)-9-((E)-2-(5-(3-fluorophenyl)pyridin-2-yl)vinyl)-1-methyl-3-oxododecahydronaphtho[2,3-c]furan-6-ylcarbamate formation at 25 uM after 120 mins by LC-MS/MS analysis in presence of NADPH; type: ADME; settings: 2 h
Cytochrome P450 3A4 = Cytochrome P450 3A4 (Homo sapiens, UniProt P08684); experiment: Activity of human recombinant CYP3A4 assessed as enzyme-mediated (3R,3aS,4S,4aR,7R,8aR,9aR)-7-amino-4-((E)-2-(5-(3-fluorophenyl)pyridin-2-yl)vinyl)-3-methyldecahydronaphtho[2,3-c]furan-1(3H)-one formation assessed per nmol of enzyme at 10 uM after 120 mins by LC-MS/MS analysis in presence of NADPH; type: ADME; settings: 2 h
Liver microsome [7] = experiment: Drug metabolism in human liver microsomes assessed as (3R,3aS,4S,4aR,7R,8aR,9aR)-7-amino-4-((E)-2-(5-(3-fluorophenyl)pyridin-2-yl)vinyl)-3-methyldecahydronaphtho[2,3-c]furan-1(3H)-one formation at 10 uM after 120 mins by LC-MS/MS analysis; type: ADME; settings: 2 h
[8] = Drug metabolism in human liver S9 fraction assessed as (3R,3aS,4S,4aR,7R,8aR,9aR)-7-amino-4-((E)-2-(5-(3-fluorophenyl)pyridin-2-yl)vinyl)-3-methyldecahydronaphtho[2,3-c]furan-1(3H)-one formation at 10 uM after 120 mins by LC-MS/MS analysis; type: ADME, subcellular; settings: s9, 2 h

Cytochrome P450 4F2, sequence (P78329 whole entry): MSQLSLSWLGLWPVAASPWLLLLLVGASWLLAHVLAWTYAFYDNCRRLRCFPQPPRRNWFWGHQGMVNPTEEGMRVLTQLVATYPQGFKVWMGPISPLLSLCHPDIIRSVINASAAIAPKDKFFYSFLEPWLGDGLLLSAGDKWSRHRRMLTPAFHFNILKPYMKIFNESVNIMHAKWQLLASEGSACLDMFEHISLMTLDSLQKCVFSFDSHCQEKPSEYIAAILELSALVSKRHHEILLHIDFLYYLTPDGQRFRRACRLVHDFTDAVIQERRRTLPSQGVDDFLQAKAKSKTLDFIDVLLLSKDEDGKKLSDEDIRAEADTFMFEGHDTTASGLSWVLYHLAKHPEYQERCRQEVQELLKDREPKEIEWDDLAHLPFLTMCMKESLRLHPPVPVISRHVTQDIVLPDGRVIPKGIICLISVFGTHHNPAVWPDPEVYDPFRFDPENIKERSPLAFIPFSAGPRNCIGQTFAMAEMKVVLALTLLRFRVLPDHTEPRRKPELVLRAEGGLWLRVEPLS
CYP2C19, sequence (P33261 whole entry): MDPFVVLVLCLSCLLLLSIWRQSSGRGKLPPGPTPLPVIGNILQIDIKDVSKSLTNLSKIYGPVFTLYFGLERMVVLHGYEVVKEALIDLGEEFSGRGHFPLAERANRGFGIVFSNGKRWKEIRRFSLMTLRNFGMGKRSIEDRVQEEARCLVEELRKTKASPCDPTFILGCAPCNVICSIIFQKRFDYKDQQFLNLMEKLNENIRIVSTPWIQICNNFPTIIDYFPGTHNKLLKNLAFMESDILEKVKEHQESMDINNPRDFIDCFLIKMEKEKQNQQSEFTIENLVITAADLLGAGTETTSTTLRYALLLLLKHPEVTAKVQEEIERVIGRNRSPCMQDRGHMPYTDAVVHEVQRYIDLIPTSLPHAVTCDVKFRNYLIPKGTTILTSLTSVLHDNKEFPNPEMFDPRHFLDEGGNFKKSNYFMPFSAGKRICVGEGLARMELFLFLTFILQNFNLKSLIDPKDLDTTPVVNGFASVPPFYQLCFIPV
Cytochrome P450 3A4, sequence (P08684 whole entry): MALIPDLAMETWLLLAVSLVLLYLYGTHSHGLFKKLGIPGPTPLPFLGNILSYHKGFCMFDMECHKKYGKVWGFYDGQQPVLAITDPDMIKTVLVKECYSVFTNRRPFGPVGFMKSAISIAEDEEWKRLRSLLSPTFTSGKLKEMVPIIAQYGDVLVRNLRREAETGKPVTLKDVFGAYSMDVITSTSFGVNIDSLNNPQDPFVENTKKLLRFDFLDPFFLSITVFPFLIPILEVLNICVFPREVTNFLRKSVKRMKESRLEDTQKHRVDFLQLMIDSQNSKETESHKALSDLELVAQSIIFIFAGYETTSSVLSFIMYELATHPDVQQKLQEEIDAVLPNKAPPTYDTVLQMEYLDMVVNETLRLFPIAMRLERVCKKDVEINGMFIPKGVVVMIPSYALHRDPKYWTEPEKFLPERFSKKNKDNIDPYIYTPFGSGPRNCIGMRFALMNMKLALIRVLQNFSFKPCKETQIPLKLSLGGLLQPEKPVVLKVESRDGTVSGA
CYP2B6, sequence (P20813 whole entry): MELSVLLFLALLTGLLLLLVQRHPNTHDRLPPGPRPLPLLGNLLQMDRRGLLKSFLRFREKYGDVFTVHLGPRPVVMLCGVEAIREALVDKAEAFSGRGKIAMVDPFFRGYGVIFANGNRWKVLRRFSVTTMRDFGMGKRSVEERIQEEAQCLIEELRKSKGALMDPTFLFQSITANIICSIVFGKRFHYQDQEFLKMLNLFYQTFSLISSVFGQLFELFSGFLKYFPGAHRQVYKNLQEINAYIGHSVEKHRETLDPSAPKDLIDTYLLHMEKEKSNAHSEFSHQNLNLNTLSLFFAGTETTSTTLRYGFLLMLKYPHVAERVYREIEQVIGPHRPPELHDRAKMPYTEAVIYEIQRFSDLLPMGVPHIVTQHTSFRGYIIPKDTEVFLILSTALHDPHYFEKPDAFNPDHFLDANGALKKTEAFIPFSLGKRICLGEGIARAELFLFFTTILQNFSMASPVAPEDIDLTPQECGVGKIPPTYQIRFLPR
Cytochrome P450 2A6, sequence (P11509 whole entry): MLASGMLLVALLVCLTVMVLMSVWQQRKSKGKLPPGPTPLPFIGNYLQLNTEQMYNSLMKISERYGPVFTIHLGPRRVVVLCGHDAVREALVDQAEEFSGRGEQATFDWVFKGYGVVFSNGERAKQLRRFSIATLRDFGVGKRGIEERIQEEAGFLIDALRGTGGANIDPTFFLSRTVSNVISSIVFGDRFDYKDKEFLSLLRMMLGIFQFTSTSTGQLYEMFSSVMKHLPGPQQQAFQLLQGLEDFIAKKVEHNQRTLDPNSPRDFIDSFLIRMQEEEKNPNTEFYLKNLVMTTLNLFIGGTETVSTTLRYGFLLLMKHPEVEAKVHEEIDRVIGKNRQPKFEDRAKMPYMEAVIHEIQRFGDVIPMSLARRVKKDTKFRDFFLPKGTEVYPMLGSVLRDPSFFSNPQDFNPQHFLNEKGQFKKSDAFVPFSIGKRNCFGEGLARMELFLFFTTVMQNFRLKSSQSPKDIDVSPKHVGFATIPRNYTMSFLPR

In the case of `C[C@H]1OC(=O)[C@@H]2C[C@@H]3C[C@H](NC(=O)OCCO)CC[C@H]3[C@H](/C=C/c3ccc(-c4cccc(F)c4)cn3)[C@H]12`, the Drug metabolism (Cytochrome P450 1A2) is reported as “metabolite_detected” and the Drug metabolism (Cytochrome P450 4F2) is reported as “metabolite_detected”.
For `CCOC(=O)N[C@@H]1CC[C@@H]2[C@@H](C1)C[C@H]1C(=O)O[C@H](C)[C@H]1[C@H]2/C=C/c1ccc(-c2cccc(F)c2)cn1` [VORAPAXAR], the Drug metabolism (Liver microsome [1]) was “metabolite_not_detected”, the Drug metabolism (Liver microsome [2]) was “metabolite_detected” and the Drug metabolism (Liver microsome [3]) was “metabolite_detected”. For the same compound, the remaining at 2 h, 10 µM [4] was 92.7%, the remaining at 2 h, 10 µM (CYP1A2) was 98.3% and the remaining at 2 h, 10 µM (CYP2B6) was 97.7%. The remaining at 2 h, 10 µM (CYP2C19) was 94.1%.
With `CCOC(=O)N[C@@H]1CC[C@@H]2[C@@H](C1)C[C@H]1C(=O)O[C@H](C)[C@H]1[C@H]2/C=[14CH]/c1ccc(-c2cccc(F)c2)cn1` the Drug metabolism (Cytochrome P450 2A6) was “metabolite_detected”, the Drug metabolism (Cytochrome P450 4F3 [5]) was “metabolite_detected” and the Drug metabolism (Cytochrome P450 4F3 [6]) was “metabolite_detected”. For the same compound, the Drug metabolism (Cytochrome P450 3A4) was 109.8 pmol/min, the Drug metabolism (Liver microsome [7]) was “metabolite_not_detected” and the Drug metabolism [8] was “metabolite_not_detected”.
